Test results as given in patent publication US20230331777A1, “NOVEL PEPTOID COMPOUNDS THAT BIND TO CELL RECEPTOR ACE2 AND PREVENT VIRUS ENTRY INTO CELLS” (priority 2020, published 2023).
Starred links: 1 amine or outer side, 2 acyl side, 3 side chain; linkers in the order of their positions; H or OH if unused. Positions of bridges follow the written chain, without caps; N, C: chain ends. Non-standard residues stand in square brackets, D forms with d. Residues, ends and D or L forms follow the SMILES beside them. Chains are numbered I, II in the order given. N(4-MeOBn)Gly = COc1ccc(CNCC(=O)O)cc1; N((CH2)3OiPr)Gly = CC(C)OCCCNCC(=O)O; X1 = CC(c1ccccc1)N(CC(=O)[*:2])[*:1]; NAllylGly = C=CCNCC(=O)O; Nleu = CC(C)CNCC(=O)O; Nme = COCCNCC(=O)O

Key:
SARS-CoV-2 pseudovirus = assay type: cell-based, human H1299 cells
ACE2 protein [1] = molecular target: T1, ACE2 protein (Homo sapiens, UniProt Q9BYF1); assay: ACE2 expression by western blot; assay type: cell-based; parameters: endogenous in cells; host or cells: MCF-7 and Caco-2 cells; details: MCF-7 and Caco-2 cells, various doses, 48 hours
Procedure: MCF-7 and Caco-2 cells were treated with various concentrations of ACE2P1D1 or ACE2P2D1 for 48 hours. ACE2 expression was determined by western blot analysis.
As ACE2 is important in blood pressure regulation, Applicant assessed whether the peptoids can decrease ACE2 expression in human cells.

ACE2 in Caco-2 cells = molecular target: T2, ACE2 in Caco-2 cells (Homo sapiens, UniProt Q9BYF1); assay: ACE2 enzymatic activity in cell homogenates; assay type: biochemical; details: Caco-2 cell homogenates, captopril 10 µM
T2 construct: endogenous in cells; host or cells: Caco-2 cells
Procedure: Assays were run at 37° C. in ACE2 reaction buffer containing 10 µM Mca-YVADAPK(Dnp), in a total volume of 100 µl. Fluorescence emission at 405 nm, after excitation at 320 nm, was measured in a microplate reader. Cleavage of the substrate Mca-YVADAPK(Dnp) by ACE2 enzyme produces fluorescence. The strength of the fluorescence indicates the ACE2 enzymatic activity.
(§1) To measure ACE2 activity in cells, cell homogenates were used. To prevent hydrolysis of the substrate by a range of nonmetalloprotease enzymes from the cells, cOmplete™ Protease Inhibitor Cocktail (Roche/Sigma) were added to the cell homogenates. To eliminate the effects of ACE on the substrate, ACE inhibitor captopril (10 µM) was added to the assay.

[2] = molecular target: T3, ACE2 in human H1299 cells (Homo sapiens, UniProt Q9BYF1); assay: ACE2 enzymatic activity in cell homogenates; assay type: biochemical; details: captopril 10 µM
T3 construct: endogenous in cells; host or cells: H1299 human lung cancer cells
Procedure: (§2) Assays were run at 37° C. in an ACE2 reaction buffer containing 10 µM Mca-YVADAPK(Dnp), in a total volume of 100 µl. Fluorescence emission at 405 nm, after excitation at 320 nm, was measured in a microplate reader. Cleavage of the substrate Mca-YVADAPK(Dnp) by ACE2 enzyme produces fluorescence. The strength of the fluorescence indicates the ACE2 enzymatic activity.
as §1

ACE2 in MCF-7 cells = molecular target: T4, ACE2 in MCF-7 cells (Homo sapiens, UniProt Q9BYF1); assay: ACE2 enzymatic activity in cell homogenates; assay type: biochemical; details: MCF-7 cell homogenates, captopril 10 µM
T4 construct: endogenous in cells; host or cells: MCF-7 cells
Procedure: as §2, §1

[3] = molecular target: SARS-CoV-2 spike protein binding to ACE2 (Homo sapiens, UniProt Q9BYF1); assay: GST pull-down assay of spike protein-ACE2 interaction; details: premixed with ACE2 for 30 minutes; ACE2 detected by western blot
HEK293T cells = assay: WST-1 cell viability assay; assay type: cell-based, human; details: various concentrations, 48 hours
Procedure: (§3) MCF-7 and HEK293T cells were treated with various concentrations of ACE2P1D1 (FIG. 12A) or ACE2P2D1 (FIG. 12B) for 48 hours. Cell viability was measured by a WST-1 assay.
(§4) To assess whether the peptoids are toxic to human cells, Applicant performed the WST-1 assay.

MCF-7 cells = assay: WST-1 cell viability assay; assay type: cell-based, human; details: various concentrations, 48 hours
Procedure: as §3, §4

ACE2 protein [4] = molecular target: T1, ACE2 protein; assay: Protein Thermal Shift assay; assay type: binding; details: 10 µM peptoid
Procedure: FIGS. 8A-D illustrate that ACE2P1 and ACE2P2 interact directly with ACE2. FIG. 8A provides experimental results from an in vitro pulldown assay for ACE2P1 and ACE2P2. […] The thermal shift assay was carried out on a QuantStudio 3 Real-Time PCR System.
Next, Applicant created the dimers of ACE2P1 and ACE2P2 (FIG. 8B) and performed thermal shift assays using recombinant ACE2 proteins. Thermal shift assay is routinely used in drug discovery to identify protein-ligand interactions. The Applied Biosystems™ Protein Thermal Shift™ assay measures protein thermal stability using a fluorescent protein-binding dye. […] The protein is mixed with the dye and heated. As it unfolds or melts, hydrophobic parts of the protein are exposed and bind to the dye, resulting in fluorescence emission detected by the qPCR system. Binding of a ligand to the protein changes the stability of the protein, resulting in a change in fluorescence intensity.

[5] = molecular target: T5, ACE2 protein levels on cell surface (Homo sapiens, UniProt Q9BYF1); assay: ACE2 surface expression by flow cytometry; assay type: cell-based; details: H1299 cells, 48 hours
T5 construct: endogenous in cells; host or cells: H1299 human lung cancer cells
Procedure: H1299 cells were treated with ACE2P1D1 or ACE2P2D1 for 48 hours. ACE2 surface expression was determined by flow cytometry analysis.
Next, Applicant determined whether or not the peptoids in this Example can decrease ACE2 levels on a cell surface.

ACE2 protein [6] = molecular target: T1, ACE2 protein; assay: ACE2 enzymatic activity, Mca-YVADAPK(Dnp) fluorescence assay; assay type: biochemical; details: up to 10 µM peptoid; 10 µM Mca-YVADAPK(Dnp), 37° C.
Procedure: as §2
ACE2 is an enzyme that lowers blood pressure by catalyzing the hydrolysis of angiotensin II. […] Applicant assessed the effects of ACE2P1D1 and ACE2P2D1 on ACE2 enzyme activity on recombinant ACE2 protein.

ACE2 protein [7] = molecular target: T1, ACE2 protein; assay: in vitro pulldown assay with peptoid conjugated beads; assay type: binding; details: 4° C. overnight, western blotting
Procedure: To confirm a direct interaction between the peptoids and ACE2, Applicant performed in vitro pulldown assays. Recombinant human ACE2 protein was incubated with ACE2P1 or ACE2P2 conjugated beads at 4° C. overnight. The beads were then washed with PBS buffer for 3 times, and the binding proteins were eluted with 1% SDS. The yielded lysates were then applied onto 10% SDS-PAGE gel and subjected to western blotting (FIG. 8A).

[8] = test system: ACE2 expressing MCF-7 cells; assay: on-bead cell binding of resynthesized peptoids (OBTC two-color); assay type: cell-based, human; details: peptoid on tentagel bead; ACE2+ red stained, ACE2- green stained MCF-7 cells
Procedure: FIG. 6 provides experimental results illustrating that on-bead peptoids ACE2P1 and ACE2P2 bind to human ACE2 positive cells. The compounds ACE2P1 and ACE2P2 were resynthesized on the tentagel bead and incubated with ACE2 expressing MCF-7 cells (red stained) and ACE2 negative MCF-7 cells (green stained) individually as well as 1:1 mixture of red and green cells.
Applicant resynthesized the identified ACE2P1 and ACE2P2 peptoids on-bead and introduced human ACE2^+ (red stained) and ACE2^- (green stained) MCF-7 cells separately to these two peptoid carrying beads.

T1 sequence (Q9BYF1 18-805): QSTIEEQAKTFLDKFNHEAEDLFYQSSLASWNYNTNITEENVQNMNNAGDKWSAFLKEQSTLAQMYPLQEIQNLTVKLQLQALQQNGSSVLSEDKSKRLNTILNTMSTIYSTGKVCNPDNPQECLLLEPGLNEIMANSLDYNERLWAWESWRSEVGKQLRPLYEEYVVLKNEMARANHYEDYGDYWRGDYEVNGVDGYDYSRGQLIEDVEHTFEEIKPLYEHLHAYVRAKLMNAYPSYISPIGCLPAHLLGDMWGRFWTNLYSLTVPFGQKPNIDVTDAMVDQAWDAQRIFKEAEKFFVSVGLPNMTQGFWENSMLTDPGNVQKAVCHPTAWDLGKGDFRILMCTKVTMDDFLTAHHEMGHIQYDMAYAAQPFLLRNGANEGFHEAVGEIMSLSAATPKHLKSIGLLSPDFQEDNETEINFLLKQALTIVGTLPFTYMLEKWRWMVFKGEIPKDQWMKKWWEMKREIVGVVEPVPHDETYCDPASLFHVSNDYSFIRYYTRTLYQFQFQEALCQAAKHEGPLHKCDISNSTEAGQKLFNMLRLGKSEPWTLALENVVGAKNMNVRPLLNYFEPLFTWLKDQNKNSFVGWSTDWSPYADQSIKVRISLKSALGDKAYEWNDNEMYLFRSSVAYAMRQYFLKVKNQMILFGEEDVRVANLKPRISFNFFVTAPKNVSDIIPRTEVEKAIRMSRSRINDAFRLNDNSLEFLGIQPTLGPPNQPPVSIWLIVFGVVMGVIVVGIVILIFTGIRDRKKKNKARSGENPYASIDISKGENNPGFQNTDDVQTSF
Chain of SARS-CoV-2 spike protein binding to ACE2 (Q9BYF1 18-740): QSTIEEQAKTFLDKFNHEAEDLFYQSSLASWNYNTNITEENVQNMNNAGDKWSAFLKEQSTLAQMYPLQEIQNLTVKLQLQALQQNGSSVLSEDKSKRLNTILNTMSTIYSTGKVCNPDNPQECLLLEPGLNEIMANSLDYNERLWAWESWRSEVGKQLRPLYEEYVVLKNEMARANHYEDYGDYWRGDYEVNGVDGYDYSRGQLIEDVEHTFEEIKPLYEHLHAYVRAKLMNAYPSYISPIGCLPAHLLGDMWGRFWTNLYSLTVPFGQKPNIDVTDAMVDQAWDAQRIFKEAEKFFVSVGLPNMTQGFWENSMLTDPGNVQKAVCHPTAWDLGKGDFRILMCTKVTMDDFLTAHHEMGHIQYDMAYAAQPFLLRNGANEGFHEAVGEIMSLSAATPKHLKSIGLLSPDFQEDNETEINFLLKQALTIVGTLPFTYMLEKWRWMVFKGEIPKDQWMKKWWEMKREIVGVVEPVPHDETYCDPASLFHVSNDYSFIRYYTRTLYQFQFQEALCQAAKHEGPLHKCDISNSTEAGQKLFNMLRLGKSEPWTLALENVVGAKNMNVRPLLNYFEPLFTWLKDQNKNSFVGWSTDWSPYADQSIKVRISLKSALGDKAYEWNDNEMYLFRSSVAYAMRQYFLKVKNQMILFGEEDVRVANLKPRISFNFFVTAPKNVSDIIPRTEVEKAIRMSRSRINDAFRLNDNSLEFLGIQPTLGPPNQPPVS
T4 sequence (Q9BYF1 18-805): as the sequence (Q9BYF1 18-805) above
T2 sequence (Q9BYF1 18-805): as above
T3 sequence (Q9BYF1 18-805): as above
T5 sequence (Q9BYF1 18-805): as above

`C=CCN(CC(=O)N(CC(=O)NC(CCCCN)C(=O)NC(CCSC)C(=O)NCCCCC(NC(=O)C(CCSC)NC(=O)C(CCCCN)NC(=O)CN(C(=O)CN(CC=C)C(=O)CN(Cc1ccc(OC)cc1)C(=O)CN(C(=O)CN(CCOC)C(=O)CNCC(C)C)C(C)c1ccccc1)C(C)c1ccccc1)C(N)=O)C(C)c1ccccc1)C(=O)CN(Cc1ccc(OC)cc1)C(=O)CN(C(=O)CN(CCOC)C(=O)CNCC(C)C)C(C)c1ccccc1` (stereo not shown) [ACE2P1D1] (I: H-[Nleu][Nme][X1][N(4-MeOBn)Gly][NAllylGly][X1]KMK-NH2 / II: H-[Nleu][Nme][X1][N(4-MeOBn)Gly][NAllylGly][X1]KM; amide I:9-II:C; configuration not given here) was tested, and the SARS-CoV-2 pseudovirus infection (SARS-CoV-2 pseudovirus) was “effective in inhibiting SARS-CoV-2 pseudovirus infection”, the “expression levels of ACE2 protein” value (ACE2 protein [1]) was “did not decrease the expression levels of ACE2 protein” and the “enzymatic activity of ACE2” value (ACE2 in Caco-2 cells) was “did not affect the enzymatic activity of ACE2”. The “enzymatic activity of ACE2” value [2] was “did not affect the enzymatic activity of ACE2”, the “enzymatic activity of ACE2” value (ACE2 in MCF-7 cells) was “did not affect the enzymatic activity of ACE2” and the “binding of spike protein to ACE2” value [3] was “prevented the binding of spike protein to ACE2”. The cell viability (HEK293T cells) was “no effects on the viability”, the cell viability (MCF-7 cells) was “no effects on the viability” and the “change in protein melting temperature” value (ACE2 protein [4]) was “increase in protein melting temperature”. The “ACE2 protein levels on cell surface” value [5] was “did not decrease the ACE2 protein levels on cell surface” and the ACE2 enzyme activity (ACE2 protein [6]) was “no effects on ACE2 activity”.
In the case of `C=CCN(CC(=O)N(CC(=O)NC(CCCCN)C(=O)NC(CCSC)C(N)=O)C(C)c1ccccc1)C(=O)CN(Cc1ccc(OC)cc1)C(=O)CN(C(=O)CN(CCOC)C(=O)CNCC(C)C)C(C)c1ccccc1` (stereo not shown) [ACE2P1] (H-[Nleu][Nme][X1][N(4-MeOBn)Gly][NAllylGly][X1]KM-NH2; configuration not given here), the “pull down of ACE2 protein” value (ACE2 protein [7]) is reported as “able to pull down the ACE2 protein”, the “binding of spike protein to ACE2” value [3] is reported as “increased the binding of spike protein to ACE2” and the “binding of peptoid beads to ACE2+ versus ACE2- MCF-7 cells” value [8] is reported as “bound only to red stained ACE2^+ cells”.
For `COCCN(CC(=O)NC(CCCCN)C(=O)NC(CCSC)C(=O)NCCCCC(NC(=O)C(CCSC)NC(=O)C(CCCCN)NC(=O)CN(CCOC)C(=O)CN(CC(C)C)C(=O)CN(CC(C)C)C(=O)CN(CCCOC(C)C)C(=O)CN(Cc1ccc(OC)cc1)C(=O)CNCc1ccc(OC)cc1)C(N)=O)C(=O)CN(CC(C)C)C(=O)CN(CC(C)C)C(=O)CN(CCCOC(C)C)C(=O)CN(Cc1ccc(OC)cc1)C(=O)CNCc1ccc(OC)cc1` (stereo not shown) [ACE2P2D1] (I: H-[N(4-MeOBn)Gly][N(4-MeOBn)Gly][N((CH2)3OiPr)Gly][Nleu][Nleu][Nme]KMK-NH2 / II: H-[N(4-MeOBn)Gly][N(4-MeOBn)Gly][N((CH2)3OiPr)Gly][Nleu][Nleu][Nme]KM; amide I:9-II:C; configuration not given here), the SARS-CoV-2 pseudovirus infection (SARS-CoV-2 pseudovirus) was “effective in inhibiting SARS-CoV-2 pseudovirus infection”, the “expression levels of ACE2 protein” value (ACE2 protein [1]) was “did not decrease the expression levels of ACE2 protein” and the “enzymatic activity of ACE2” value (ACE2 in Caco-2 cells) was “did not affect the enzymatic activity of ACE2”. For the same compound, the “enzymatic activity of ACE2” value [2] was “did not affect the enzymatic activity of ACE2”, the “enzymatic activity of ACE2” value (ACE2 in MCF-7 cells) was “did not affect the enzymatic activity of ACE2” and the “binding of spike protein to ACE2” value [3] was “prevented the binding of spike protein to ACE2”. The cell viability (HEK293T cells) was “no effects on the viability”, the cell viability (MCF-7 cells) was “no effects on the viability” and the “change in protein melting temperature” value (ACE2 protein [4]) was “increase in protein melting temperature”. The “ACE2 protein levels on cell surface” value [5] was “did not decrease the ACE2 protein levels on cell surface” and the ACE2 enzyme activity (ACE2 protein [6]) was “no effects on ACE2 activity”.
`COCCN(CC(=O)NC(CCCCN)C(=O)NC(CCSC)C(N)=O)C(=O)CN(CC(C)C)C(=O)CN(CC(C)C)C(=O)CN(CCCOC(C)C)C(=O)CN(Cc1ccc(OC)cc1)C(=O)CNCc1ccc(OC)cc1` (stereo not shown) [ACE2P2] (H-[N(4-MeOBn)Gly][N(4-MeOBn)Gly][N((CH2)3OiPr)Gly][Nleu][Nleu][Nme]KM-NH2; configuration not given here) was tested, and the “pull down of ACE2 protein” value (ACE2 protein [7]) was “able to pull down the ACE2 protein”, the “binding of spike protein to ACE2” value [3] was “increased the binding of spike protein to ACE2” and the “binding of peptoid beads to ACE2+ versus ACE2- MCF-7 cells” value [8] was “bound only to red stained ACE2^+ cells”.
